Test system: 429239-143-T-J1-PDC complex spheroid viability
Assay: Anticancer human tumor 429239-143-T-J1-PDC patient-derived small cell lung carcinoma cell line growth inhibition [POLQ]
Settings: for IC50: curve of first compound; for viability, T/C: stronger effect = lower value; active means viability on the fitted dose curve at most 10% of control; inactive means the rest
Method in brief: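 Three-cell-type spheroids modelling solid tumor plus stroma served as the readout system; POL inhibitors were tested individually and in combination, concentration ranges set by clinical Cmax where known.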

[1] = second compound 0.0316 µM, first compound 0.0316 µM
[2] = second compound 0.0316 µM, first compound 0.1 µM
[3] = second compound 0.0316 µM, first compound 0.316 µM
[4] = second compound 0.0316 µM, first compound 1 µM
[5] = second compound 0.0316 µM, first compound 3.16 µM
[6] = second compound 0.0316 µM, first compound 10 µM
[7] = second compound 0.1 µM, first compound 0.0316 µM
[8] = second compound 0.1 µM, first compound 0.1 µM
[9] = second compound 0.1 µM, first compound 0.316 µM
[10] = second compound 0.1 µM, first compound 1 µM
[11] = second compound 0.1 µM, first compound 3.16 µM
[12] = second compound 0.1 µM, first compound 10 µM
[13] = second compound 0.316 µM, first compound 0.0316 µM
[14] = second compound 0.316 µM, first compound 0.1 µM
[15] = second compound 0.316 µM, first compound 0.316 µM
[16] = second compound 0.316 µM, first compound 1 µM
[17] = second compound 0.316 µM, first compound 3.16 µM
[18] = second compound 0.316 µM, first compound 10 µM
[19] = second compound 1 µM, first compound 0.0316 µM
[20] = second compound 1 µM, first compound 0.1 µM
[21] = second compound 1 µM, first compound 0.316 µM
[22] = second compound 1 µM, first compound 1 µM
[23] = second compound 1 µM, first compound 3.16 µM
[24] = second compound 1 µM, first compound 10 µM
[25] = second compound 3.16 µM, first compound 0.0316 µM
[26] = second compound 3.16 µM, first compound 0.1 µM
[27] = second compound 3.16 µM, first compound 0.316 µM
[28] = second compound 3.16 µM, first compound 1 µM
[29] = second compound 3.16 µM, first compound 3.16 µM
[30] = second compound 3.16 µM, first compound 10 µM
[31] = second compound 10 µM, first compound 0.0316 µM
[32] = second compound 10 µM, first compound 0.1 µM
[33] = second compound 10 µM, first compound 0.316 µM
[34] = second compound 10 µM, first compound 1 µM
[35] = second compound 10 µM, first compound 3.16 µM
[36] = second compound 10 µM, first compound 10 µM
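Further: luminescence signal used as surrogate measure of viable cells; spheroids exposed to compounds for seven days before readout.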
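Wherever viability, T/C is given: 100% = DMSO vehicle control viability as luminescence relative to vehicle.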

CC(C)n1c(=O)n(C)c2cnc3cc(F)c(-c4ccc(OCCCN5CCCCC5)nc4)cc3c21 + Nc1ccc(C#CCN(C(=O)Cc2ncc(C(F)(F)F)cc2C(F)(F)F)c2ccc(F)cc2)nn1
inactive: viability, T/C [1] 98.5% | viability, T/C [2] 107% | viability, T/C [3] 92.2% | viability, T/C [4] 109% | viability, T/C [5] 102% | viability, T/C [6] 97.8% | viability, T/C [7] 102% | viability, T/C [8] 105% | viability, T/C [9] 99.9% | viability, T/C [10] 102% | viability, T/C [11] 106% | viability, T/C [12] 90.9% | viability, T/C [13] 101% | viability, T/C [14] 107% | viability, T/C [15] 93.3% | viability, T/C [16] 104% | viability, T/C [17] 106% | viability, T/C [18] 91.1% | viability, T/C [19] 99.1% | viability, T/C [20] 101% | viability, T/C [21] 105% | viability, T/C [22] 102% | viability, T/C [23] 105% | viability, T/C [24] 93% | viability, T/C [25] 97.1% | viability, T/C [26] 91.4% | viability, T/C [27] 98.9% | viability, T/C [28] 98.6% | viability, T/C [29] 100% | viability, T/C [30] 91.1% | viability, T/C [31] 105% | viability, T/C [32] 103% | viability, T/C [33] 97.3% | viability, T/C [34] 99.4% | viability, T/C [35] 91.5% | viability, T/C [36] 94.3%
> 10 µM: IC50 (second compound 0.0316 µM) | IC50 (second compound 0.1 µM) | IC50 (second compound 0.316 µM) | IC50 (second compound 1 µM) | IC50 (second compound 3.16 µM) | IC50 (second compound 10 µM)

CCc1cc2c(N3CCc4c(cc(Cn5ccnc5)cc4-c4cn(C)nc4C(F)(F)F)C3=O)ccnc2c(OC)n1 + Nc1ccc(C#CCN(C(=O)Cc2ncc(C(F)(F)F)cc2C(F)(F)F)c2ccc(F)cc2)nn1
9.55 µM: IC50 (second compound 1 µM)
7.86 µM: IC50 (second compound 0.316 µM)
> 10 µM: IC50 (second compound 0.1 µM) | IC50 (second compound 3.16 µM) | IC50 (second compound 10 µM)
inactive: viability, T/C [1] 100% | viability, T/C [2] 94.9% | viability, T/C [3] 85.2% | viability, T/C [4] 80.7% | viability, T/C [5] 86.4% | viability, T/C [6] 48% | viability, T/C [7] 93.7% | viability, T/C [8] 96.8% | viability, T/C [9] 92.5% | viability, T/C [10] 74.1% | viability, T/C [11] 68.5% | viability, T/C [12] 49.2% | viability, T/C [13] 112% | viability, T/C [14] 113% | viability, T/C [15] 97.8% | viability, T/C [16] 83.8% | viability, T/C [17] 69.9% | viability, T/C [18] 44.7% | viability, T/C [19] 108% | viability, T/C [20] 94.4% | viability, T/C [21] 94.4% | viability, T/C [22] 84.6% | viability, T/C [23] 74.3% | viability, T/C [24] 47.6% | viability, T/C [25] 108% | viability, T/C [26] 96% | viability, T/C [27] 93.1% | viability, T/C [28] 93.6% | viability, T/C [29] 70.9% | viability, T/C [30] 54% | viability, T/C [31] 103% | viability, T/C [32] 93% | viability, T/C [33] 88.5% | viability, T/C [34] 79.1% | viability, T/C [35] 71% | viability, T/C [36] 48.2%
9.75 µM: IC50 (second compound 0.0316 µM)

Source: PubChem BioAssay AID1963845 (Molecular Pharmacology Branch, DTP, NCI, 2024)
